Consider 7 molecules from patent US20090175799A1, “COLORED OR COLORABLE TOPICAL COMPOSITION FOAM” (priority 2006, published 2009).

Bounds are passed on as bounds.

On the data set, the source says:
In one or more embodiments, the foamable composition includes a potent solvent, in addition to or in place of one of the hydrophobic solvents, polar solvents or emollients of the composition. A potent solvent is a solvent other than mineral oil that solubilizes a specific active agent substantially better than a hydrocarbon solvent such as mineral oil or petrolatum.
In the case of `CCCCC(=O)O[C@]1(C(=O)CO)[C@@H](C)C[C@H]2[C@@H]3CCC4=CC(=O)C=C[C@]4(C)[C@@]3(F)[C@@H](O)C[C@@]21C` [Betamethasone valerate], the solubility in glycofurol entry is “more than 1%” and the “solubility in mineral oil” value is on record as less than 0.01%.

With `CCCC(=O)O[C@]1(C(=O)CO)CC[C@H]2[C@@H]3CCC4=CC(=O)CC[C@]4(C)[C@H]3[C@@H](O)C[C@@]21C` [Hydrocortisone butyrate], the solubility in glycofurol result was “more than 1%” and the “solubility in mineral oil” value was less than 0.01%.

Regarding `CC(=O)N1CCN(c2ccc(OCC3COC(Cn4ccnc4)(c4ccc(Cl)cc4Cl)O3)cc2)CC1` (centres unmarked) [Ketoconazole], the “solubility in dimethyl isosorbide” value is listed as “more than 1%”, the solubility in glycofurol result is given as “more than 1%”, the “solubility in mineral oil” value is listed as less than 0.01% and the “solubility in propylene glycol” value is “more than 1%”.

In the case of `Cc1cnc(NC(=O)C2=C(O)c3ccccc3S(=O)(=O)N2C)s1` [Meloxicam], the “solubility in mineral oil” value is recorded as less than 0.001%.

As for `Cc1ncc([N+](=O)[O-])n1CCO` [Metronidazole], the “solubility in dimethyl isosorbide” value is reported as “more than 1%” and the “solubility in mineral oil” value is less than 0.01%.

On to `C/C(=C\C(=O)OCCCCCCCCC(=O)O)C[C@@H]1OC[C@H](C[C@@H]2O[C@H]2[C@@H](C)[C@H](C)O)[C@@H](O)[C@H]1O` [Mupirocin], for which the “solubility in dimethyl isosorbide” value is “more than 1%”, the solubility in glycofurol result is on record as “more than 1%”, the “solubility in mineral oil” value is given as less than 0.01% and the “solubility in polyethylene glycol 400 (PEG 400)” value is given as “more than 1%”. The “solubility in propylene glycol” value is reported as “more than 1%”.

In the case of `CC(=O)[C@H]1CC[C@H]2[C@@H]3CCC4=CC(=O)CC[C@]4(C)[C@H]3CC[C@]12C` [Progesterone], the “solubility in mineral oil” value is given as less than 0.001%.
